Legend:
[1] = Biodistribution studies in HEK-uPAR xenograft-bearing nude mice; settings: female, CD1/nude, mouse, 5 MBq (0.5 nmol), total radioactivity, 5 MBq, 0.5 nmol, decay-corrected, average ± SD, n=3 animals; for tissue uptake at 4 h: 4 h p.i.; for tissue uptake at 24 h: 24 h p.i.
[2] = system: HEK-uPAR xenograft-bearing nude mice; test: as above; settings: average ± SD, n=3 animals
[3] = Radiolytic stability of the radiopeptides in saline with L-ascorbic acid; settings: 50 MBq/nmol in saline, 150 MBq/300 µL, L-ascorbic acid (3 mg, 20 µL) and NaOAc (0.5 M, 30 µL), HPLC, product peak relative to t=0 (100%), average ± SD, n=3
Method: The radiolytic stability of the radiopeptides (50 MBq/nmol) in saline (150 MBq/300 μL) was assessed in the absence and presence of L-ascorbic acid (3 mg added in a volume of 20 μL). After an incubation period of 1, 4, and 24 h, aliquots of the solutions were analyzed using HPLC. The integrated peak area representing the intact radiopeptide was expressed as the percentage of the sum of all peaks of the chromatogram. The final amount of intact radiopeptide was expressed as the percentage of the product peak obtained at t = 0, which was set as 100% (Supporting Information).
The radiolytic stability of [177Lu]Lu-DOTA-AE105 and the new 177Lu-labeled uPAR-targeting
radiopeptides (50 MBq/nmol) was assessed in vitro in the formulated solution . The radiopeptide s were
diluted in saline to obtain an activity concentration of 150 MBq in 300 µL in the presence of L-ascorbic
acid (3 mg, 20 µL) and NaOAc (0.5 M, 30 µL) to compensate for the acidic pH. Aliquots of the dilutions
were analyzed using HPLC after incubation periods of 1 h, 4 h and 24 h . The integrated peak area
measured for the intact radioligand peak was expressed as the percentage of the sum of the integrated
peak areas of each peak present in the chromatogram. The final amount of intact radiopeptide at t = 1 h,
4 h and 24 h was expressed by correcting the obtained percentage of the product peak to this peak
obtained at t = 0, which was set as 100%.

[4] = Stability of the radiopeptides in human blood plasma; settings: human
Method: The radiopeptides (50 MBq/nmol) stabilized with L-ascorbic acid were diluted in mouse and human blood plasma and incubated at 37 °C. Aliquots were taken after 1, 4, and 24 h and analyzed using reversed-phase thin-layer chromatography (TLC) (Supporting Information).
aProduct peak expressed as percentage of the sum of integrated peak areas of the entire chromatogram relative to
the value obtained immediately after labeling (set as 100%), average ± standard deviation (SD) (n=3).
Stability of the Radiopeptides in Mouse and Human Blood Plasma
Purpose: The stability of the radiopeptides was assessed in mouse and human blood plasma as an
indication for their in vivo stability.
Methods: The radiopeptides (50 MBq/nmol) stabilized with L-ascorbic acid were diluted in mouse
blood plasma (Lot: 32321, Rockland Immunochemicals Inc., U.S.A.) or in human blood plasma
(Stiftung Blutspende SRK Aargau -Solothurn, Switzerland) at a concentration of 10 MBq/200 µL and
incubated at 37 °C over a 24 h time period. Control samples were prepared by diluting the radiopeptides
in saline at the same activity concentration. Aliquots of each dilution were taken after 1 h, 4 h, and 24 h
(2 µL, ~100 kBq) and investigated employing thin layer chromatography (TLC) methods on reversed-
phase TLC plates (MERCK Analytical Chromatography, TLC Silica gel 60 RP -18 F254s) as stationary
phase and a 3/7 (v/v) mixture of acetonitrile /citrate buffer (0.1 M, pH 5.5) as mobile phase. A dilution
of [177Lu]LuCl3/HCl 0.04 M (10 MBq/200 µL) was added on each TLC plate. The developed and dried
TLC plates were exposed to a phosphor screen (Super resolution screen PSR10450013, PerkinElmer)
for 1 min. The screen was read with a Cyclone Plus phosphor imager (PerkinElmer) and the peak
quantification was performed using OptiQuant Software (version 5.0).

[5] = target: T1, human uPAR (Homo sapiens, UniProt Q03405); test: uPAR-binding affinity (KD values), saturation experiments with HEK-uPAR cells; settings: saturation binding on HEK-uPAR cells, on ice (4 °C) 1 h, 1–1600 nM radiopeptide, ± AE105 40 µM; γ-counter; nonlinear regression; average ± SD, n=3
T1 construct: host or cells: HEK cells (HEK-uPAR)
Method: To determine the uPAR-binding affinity of the radiopeptides, saturation experiments were performed using HEK-uPAR cells in 48-well plates (Supporting Information). The cells were incubated on ice for 1 h in the presence or absence of excess AE105 (final concentration of 40 μM) together with the respective radiopeptide at a concentration range of 1–1600 nM. After rinsing the cells with PBS, they were lysed with an aqueous NaOH solution (1 M, 600 μL), transferred to radioimmunoassay tubes, and measured in a γ-counter (1480 Wizard, PerkinElmer). The K D values were determined by plotting the specific binding (values of samples incubated without AE105 minus the values of samples incubated with AE105) against the molar concentration of the added peptide. A nonlinear regression analysis was performed using GraphPad Prism software (version 8.3.1). The results were expressed as average ± SD of n = 3 independently performed experiments. […]
7. Determination of uPAR-Binding Affinity (KD Values)
Purpose: The uPAR-binding affinity of the radiopeptides were determined to investigate the impact of structural changes on the receptor binding.
Methods: HEK-uPAR cells were seeded in poly-D-lysine-coated 48-well plates (0.25 × 10 6 in 0.5 mL per well) using DMEM cell culture medium with supplements. The cells were incubated at 37 °C and 5% CO2 overnight to allow adhesion and growth. After removing the supernatant, the well plates with HEK-uPAR cells were placed on ice to prevent internalization of the radiopeptides. The cells were rinsed with cold PBS (0.5 mL, pH 7.4) followed by the addition of DMEM cell culture medium without supplements (450 µL/well) in the presence or absence of AE105 ( final concentration 40 µM) as a receptor-blocking agent. The radiopeptides (5 MBq/nmol) were diluted in PBS to obtain peptide concentrations ranging from 10 ‒16000 nM. From each dilution, 50 µL were added to each well to obtain final peptide concentrations of 1 nM to 1600 nM. The cells were incubated at 4 °C for 1 h before rinsing twice with PBS (0.5 mL, pH 7.4). The cells were lysed using an aqueous NaOH solution (1 M, 600 µL) and the lysates were transferred to RIA tubes for counting the activity in a γ-counter (1480 Wizard, PerkinElmer) . The KD values were determined by plotting specific binding (total binding minus unspecific binding) against the molar concentration of the added radiopeptide using GraphPad Prism (version 8.3.1). the results were then expressed as average K D values ± SD of n = 3 independent […]
Results: The results are reported in the main article.

[6] = Stability of the radiopeptides in mouse blood plasma; settings: mouse
[7] = n-Octanol/PBS distribution coefficients (logD values); settings: n-octanol/PBS pH 7.4, pH 7.4
[8] = system: human serum albumin (HSA); test: Albumin-binding properties in human blood plasma (ultrafiltration assay); settings: ultrafiltration (Amicon, 10 kDa), human blood plasma dilutions in PBS pH 7.4, [HSA]-to-[radiopeptide] 0.01–20000, 0.006 nmol, 37 °C 30 min, γ-counter; inverse ratio of B50, [177Lu]Lu-uPAR-01 set as 1.00; average curve of 3 experiments
[9] = HEK-uPAR xenograft, HEK-uPAR xgft

T1 sequence (Q03405 23-335): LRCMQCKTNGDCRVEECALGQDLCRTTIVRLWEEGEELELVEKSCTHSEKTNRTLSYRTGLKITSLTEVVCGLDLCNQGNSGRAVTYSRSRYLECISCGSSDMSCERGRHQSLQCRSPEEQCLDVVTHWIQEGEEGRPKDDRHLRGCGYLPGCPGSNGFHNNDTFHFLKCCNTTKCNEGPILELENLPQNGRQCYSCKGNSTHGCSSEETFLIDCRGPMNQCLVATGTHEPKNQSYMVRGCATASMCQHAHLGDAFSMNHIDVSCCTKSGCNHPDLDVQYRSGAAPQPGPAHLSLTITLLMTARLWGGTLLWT

Compound: CC(C)C[C@H](NC(=O)[C@H](Cc1ccc(O)cc1)NC(=O)[C@@H](CCCNC(=N)N)NC(=O)[C@@H](CO)NC(=O)[C@H](Cc1ccccc1)NC(=O)[C@H](CC1CCCCC1)NC(=O)[C@H](CC(=O)O)NC(=O)[C@H](CCCCNC(=O)CCCc1ccc(I)cc1)NC(=O)[C@@H](N)CCCCNC(=O)CN1CCN(CC(=O)O)CCN(CC(=O)O)CCN(CC(=O)O)CC1)C(=O)N[C@@H](Cc1c[nH]c2ccccc12)C(=O)N[C@@H](CO)C(N)=O [[^177Lu]Lu-uPAR-04, metal not drawn]
- tissue uptake at 4 h [1, 9]: 3.6 ± 0.2 %ID/g
- tissue uptake at 24 h [1, 9]: 4.3 ± 1.2 %ID/g
- tissue uptake at 4 h ([1]; blood): 13 ± 1 %ID/g
- tissue uptake at 24 h ([1]; blood): 7 ± 0.9 %ID/g
- tissue uptake at 4 h ([1]; bone): 1.2 ± 0.1 %ID/g
- tissue uptake at 24 h ([1]; bone): 0.85 ± 0.04 %ID/g
- tissue uptake at 4 h ([1]; brain): 0.26 ± 0.02 %ID/g
- tissue uptake at 24 h ([1]; brain): 0.14 ± 0.01 %ID/g
- tissue uptake at 4 h ([1]; heart): 4.4 ± 0.6 %ID/g
- tissue uptake at 24 h ([1]; heart): 3 ± 0.3 %ID/g
- tissue uptake at 4 h ([1]; intestines): 1.6 ± 0.1 %ID/g
- tissue uptake at 24 h ([1]; intestines): 0.99 ± 0.21 %ID/g
- tissue uptake at 4 h ([1]; kidneys): 5.9 ± 0.4 %ID/g
- tissue uptake at 24 h ([1]; kidneys): 5.9 ± 1.2 %ID/g
- tissue uptake at 4 h ([1]; liver): 3.9 ± 0.3 %ID/g
- tissue uptake at 24 h ([1]; liver): 3.1 ± 0.4 %ID/g
- tissue uptake at 4 h ([1]; lung): 6.2 ± 0.7 %ID/g
- tissue uptake at 24 h ([1]; lung): 4.3 ± 0.5 %ID/g
- tissue uptake at 4 h ([1]; muscle): 1 ± 0.1 %ID/g
- tissue uptake at 24 h ([1]; muscle): 0.73 ± 0.04 %ID/g
- tissue uptake at 4 h ([1]; pancreas): 1.5 ± 0.1 %ID/g
- tissue uptake at 24 h ([1]; pancreas): 1 ± 0.1 %ID/g
- tissue uptake at 4 h ([1]; salivary glands): 2.8 ± 0.2 %ID/g
- tissue uptake at 24 h ([1]; salivary glands): 2.4 ± 0.4 %ID/g
- tissue uptake at 4 h ([1]; spleen): 1.9 ± 0.1 %ID/g
- tissue uptake at 24 h ([1]; spleen): 2.3 ± 0.3 %ID/g
- tissue uptake at 4 h ([1]; stomach): 1.5 ± 0.1 %ID/g
- tissue uptake at 24 h ([1]; stomach): 1 ± 0.1 %ID/g
- Xenograft-to-blood ratio ([2]; 4 h p.i.): 0.28 ± 0.01
- Xenograft-to-kidney ratio ([2]; 4 h p.i.): 0.62 ± 0.01
- Xenograft-to-liver ratio ([2]; 4 h p.i.): 0.93 ± 0.08
- Xenograft-to-blood ratio ([2]; 24 h p.i.): 0.61 ± 0.09
- Xenograft-to-kidney ratio ([2]; 24 h p.i.): 0.73 ± 0.15
- Xenograft-to-liver ratio ([2]; 24 h p.i.): 1.4 ± 0.2
- radiolytic stability, % intact radiopeptide ([3]; 1 h): 99 ± 1%
- radiolytic stability, % intact radiopeptide ([3]; 4 h): 97 ± 2%
- radiolytic stability after 24 h, intact radiopeptide [%] ([3]; 24 h): 95 ± 2%
- remaining at 1 h, 10 MBq/200 µL ([4]; blood plasma): 101 ± 3%
- remaining at 24 h, 10 MBq/200 µL ([4]; blood plasma): 90 ± 5%
- remaining at 4 h, 10 MBq/200 µL ([4]; human blood plasma): 98 ± 2%
- Kd [5]: 57 ± 21 nM
- remaining at 1 h, 10 MBq/200 µL ([6]; blood plasma): 101 ± 2%
- remaining at 24 h, 10 MBq/200 µL ([6]; blood plasma): 98%
- remaining at 4 h, 10 MBq/200 µL ([6]; mouse blood plasma): 99 ± 3%
- logD [7]: -0.29
- Relative albumin-binding affinity, human blood plasma [8]: 1.07

From publication PMC12135066, “Design and Preclinical Evaluation of Novel uPAR-Targeting Radiopeptides Modified with an Albumin-Binding Entity” (Molecular Pharmaceutics, 2025)
